{"source": "patent US20100189772A1", "about": "“Compositions of TLR ligands and antivirals” (COLEY PHARMACEUTICAL GROUP, INC, priority 2006, published 2010)", "key": {"[1]": {"tested_on": "CD3-mediated IFN-γ production", "assay": "Ex vivo anti-CD3 stimulation of lymph node cells in the presence of RBV, IFN-gamma ELISA", "type": "cell-based, Mice", "experimental": "(§1) We repeated the experiment with a lower dose of RBV in vivo (0.5 mg/kg IP).\n(§2) Mice were injected with SEQ ID NO. 14 (100 micrograms SC), RBV (0.5 mg/kg IP) or SEQ ID NO. 14 and RBV. RBV was administered in vivo either at day 0 or day 5 and CpG was administered at day O, Samples were isolated at Day 6 from the inguinal lymph node and maintained in medium on anti-CD3 coated plated in the presence of 1-16 μM RBV. On Day 8 an ELISA assay was performed to detect IFN-gamma.\nThe ex vivo effect of RBV on CD3-mediated IFN-γ production independently of prior ODN/RBV treatment was examined. Similar to the data described above, low concentrations of RBV in vitro increased IFN-γ levels independently of previous in vivo treatments (FIG. 5A)."}, "[2]": {"tested_on": "bone marrow (BM) derived dendritic cells (DCs)", "assay": "Cytokine production of bone marrow derived dendritic cells treated with SEQ ID NO. 14 and/or RBV", "type": "cell-based", "experimental": "Similar experiments were performed using bone marrow (BM) derived dendritic cells (DCs). BM-derived DC maintained in GM-CSF were treated with SEQ ID NO. 14, RBV (1 μM, 5 μM, 10 μM, 100 μM, or 120 μM) or with SEQ ID NO. 14 and RBV. At 4, 24 and 72 hours samples were tested for cytokine, IL-10 (FIG. 6), IL-12p40 (FIG. 7A), IL-12p70 (FIG. 7B) and TNF (data not shown). No effects of RBV alone at 120 μM were observed. SEQ ID NO. 14 induced IL-12, IL-10 and TNF. RBV decreased IL-10 and TNF but increased IL-12 (at 72 h only). RBV decreased SEQ ID NO. […]."}, "T cell IFN-γ production": {"tested_on": "T cell IFN-γ production", "assay": "In vivo treatment of mice with CpG ODN and/or RBV, ex vivo anti-CD3 induced IFN-gamma production of inguinal lymph node cells (ELISA)", "conditions": "for T cell IFN-γ production ex-vivo after in vivo treatment with a single agent: SEQ ID NO. 14 100 micrograms SC or RBV 0.5 mg/kg IP alone, lymph node Day 6, ELISA Day 8, FIG. 4", "experimental": "as §1, §2"}, "Human PBMC [3]": {"tested_on": "Human PBMC", "assay": "Effect of Ribavirin on CpG ODN-induced cytokines in human PBMC co-culture", "type": "cell-based", "conditions": "for IC50: Homo sapiens, PBMC, calculated IC50 upon addition of Ribavirin to cultures containing 1 μM SEQ ID NO: 13", "experimental": "(§3) Cell purification Peripheral blood buffy coat preparations from healthy human donors were obtained from the Blood Bank of the University of Düsseldorf (Germany) and PBMC were purified by centrifugation over Ficoll-Hypaque (Sigma). Cells were cultured in a humidified incubator at 37° C. in RPMI 1640 medium supplemented with 5% (v/v) heat inactivated human AB serum (BioWhittaker) or 10% (v/v) heat inactivated FCS, 2 mM L-glutamine, 100 U/ml penicillin and 100 μg/ml streptomycin (all from Sigma).\n(§4) Cytokine detection PBMC were resuspended at a concentration of 5×10^6 cells/ml and added to 96 well round-bottomed plates (250 μl/well). PBMC were incubated with various ODN, ORN or nucleoside concentrations and culture supernatants (SN) were collected after the indicated time points. If not used immediately, SN were stored at −20° C. until required. For inhibitory experiments, cells were stimulated with the indicated TLR ligand concentration and nucleoside or ORN added. In some experiments, the second modified ORN was added 1 h after the start of the cell culture.\n(§5) Amounts of cytokines in the SN were assessed using a commercially available ELISA Kit for IL-12p40 (from BD Biosciences, Heidelberg, Germany), IFN-γ and TNF-α (from Diaclone, Besancon, France) or an in-house ELISA for IFN-α developed using commercially available antibodies (PBL, New Brunswick, N.J., USA). For analysis of a broad set of cytokines and chemokines, multiplex analysis with a luminex system from Bio-Rad (Munich, Germany) and Multiplex kits from Biosource (Solingen, Germany) was performed.\nThe observations were particularly noted at lose doses of Ribavirin."}, "Human PBMC [4]": {"tested_on": "Human PBMC", "assay": "Cytokine induction by ORN in human PBMC (ELISA of supernatants)", "type": "cell-based", "conditions": "human PBMC (n=3); for IFN-alpha cytokine induction, 8-modified nucleotide at the ORN 5′ end: FIG. 3, compared to the unmodified ORN (SEQ ID NO:8 and 11); for IFN-alpha cytokine induction, effect of the position of 8-Oxo-rG: FIG. 2, versus control SEQ ID NO:8", "experimental": "as §3, §4, §5\nHuman PBMC (n=3) were stimulated with 8-Oxo-rG (a C-8 substituted guanosine) modified ORN (SEQ ID NO:1-4) and an unmodified ORN (SEQ ID NO:8). Supernatants were collected and cytokines IFN-alpha (FIG. 1a), IL-12p40 (FIG. 1b) and TNF-alpha (FIG. 1c) were measured.\nHuman PBMC (n=3) were stimulated with the indicated ORN with a single 8-Oxo-rG at different positions of the ORN (SEQ ID NO:1-4) and the […] negative control (SEQ ID NO:8). Supernatants were collected and IFN-alpha measured.\nHuman PBMC (n=3) were stimulated with the indicated ORN with a single 8-Oxo-rG/Dg (SEQ ID NO:1, 5), 8-Bromo-dG (SEQ ID NO:7) or Immunosine (Isatoribine) (SEQ ID NO:6) (with a 5′-5′ linkage) at the 5′ end of the ORN and IFN-alpha measured. […] Similar data were obtained for 8-Bromo-rG (data not shown). In addition, even the linkage of a 8-modified dA or rA (data not shown) results in an, although only slight increase of the cytokine induction."}, "C26 SC mouse model": {"tested_on": "C26 SC mouse model", "assay": "C26 SC mouse cancer model, survival", "type": "in vivo", "conditions": "100 micrograms ODN intra/peri tumor at days 7, 14, 21; 0.5 mg/kg RBV IP on same days; as of days 30-40; FIG. 8", "experimental": "C26 SC mouse model was treated with SEQ ID NO. 14 and RBV (100 micrograms ODN intra/peri tumor at days 7, 14, 21 and 0.5 mg/kg RBV IP on same days)."}, "[5]": {"conditions": "human PBMC stimulated with CpG ODN (SEQ ID NO:15 as printed), increasing doses of Ribavirin"}, "[6]": {"conditions": "SEQ ID NO. 14 alone, BM-derived DC in GM-CSF"}}, "note": "Read-outs that look alike come from different tables or passages of the source."}
{"molecule": "NC(=O)c1ncn([C@@H]2O[C@H](CO)[C@@H](O)[C@H]2O)n1", "note": "[Ribavirin]", "values": [{"measurement": "IFN-γ production, ex vivo anti-CD3 stimulation in the presence of RBV", "setting": "[1]; initial experiment, only at rather low concentrations of RBV (1-5 μM)", "value": "increase IFN-γ production"}, {"measurement": "CD3-mediated IFN-γ levels, RBV in vitro", "setting": "[1]; low concentrations of RBV in vitro, independently of previous in vivo treatments, FIG. 5A", "value": "increased"}, {"measurement": "effect of RBV on SEQ ID NO. 14-induced IL-12p40", "setting": "[2]; BM-derived DC, FIG. 7A", "value": "decreased"}, {"measurement": "effect of RBV on SEQ ID NO. 14-induced IL-12p70", "setting": "[2]; BM-derived DC, FIG. 7B", "value": "increased IL-12p70 (slightly)"}, {"measurement": "effect of RBV on SEQ ID NO. 14-induced IL-10", "setting": "[2]; BM-derived DC, RBV 1-120 μM with SEQ ID NO. 14, FIG. 6", "value": "decreased"}, {"measurement": "effect of RBV on IL-12", "setting": "[2]; BM-derived DC, RBV with SEQ ID NO. 14, at 72 h only", "value": "increased"}, {"measurement": "effect of RBV on TNF", "setting": "[2]; BM-derived DC, RBV with SEQ ID NO. 14, data not shown", "value": "decreased"}, {"measurement": "cytokines (IL-10, IL-12p40, IL-12p70, TNF), RBV alone", "setting": "[2]; RBV alone at 120 μM, 4, 24 and 72 hours", "value": "No effects"}, {"measurement": "effect of RBV on IFN-γ production when CpG ODN was also injected", "setting": "T cell IFN-γ production; RBV 0.5 mg/kg IP with SEQ ID NO. 14 100 micrograms SC, FIG. 4B", "value": "greatly enhanced"}, {"measurement": "T cell IFN-γ production ex-vivo after in vivo treatment with a single agent", "setting": "T cell IFN-γ production", "value": "small effect"}, {"measurement": "ex vivo IFN-γ CD3-induced production after in vivo RBV", "setting": "T cell IFN-γ production; initial experiment, 10 mg/kg intraperitoneal (IP) RBV", "value": "no effect in vivo of RBV and possibly even a slight decrease"}, {"measurement": "IC50", "setting": "Human PBMC [3]; read-out: IC50 IFN-alpha", "value": 1000, "unit": "µM"}, {"measurement": "IC50", "setting": "Human PBMC [3]; read-out: IC50 IL-6", "value": 320, "unit": "µM"}, {"measurement": "IC50", "setting": "Human PBMC [3]; read-out: IC50 IL-10", "value": 58, "unit": "µM"}, {"measurement": "effect on the CpG-induced IL10 induction", "setting": "Human PBMC [3]; [5]", "value": "suppressive effect"}, {"measurement": "suppressive effect with respect to IFN-alpha", "setting": "Human PBMC [3]; [5]", "value": "not observed"}]}
{"molecule": "O*rU*rU*rG*rU*rG*rU (8-oxo-dG at 5' end, phosphorothioate linkages, as printed in the source, key not given here) [SEQ ID NO:5, ORN with a single 8-Oxo-rG/Dg at the 5′ end]", "values": [{"measurement": "IFN-alpha cytokine induction, 8-modified nucleotide at the ORN 5′ end", "setting": "Human PBMC [4]", "value": "increased cytokine induction"}]}
{"molecule": "TCCATGACGTTCCTGATGC (chemistry not given here) [SEQ ID NO. 14, CpG ODN]", "values": [{"measurement": "survival", "setting": "C26 SC mouse model", "value": "prolonged survival"}, {"measurement": "IL-10 induction", "setting": "[2]; [6]", "value": "induced"}, {"measurement": "IL-12 induction", "setting": "[2]; [6]", "value": "induced"}, {"measurement": "TNF induction", "setting": "[2]; [6]", "value": "induced"}, {"measurement": "T cell IFN-γ production ex-vivo after in vivo treatment with a single agent", "setting": "T cell IFN-γ production", "value": "increased"}]}
{"molecule": "iIM*rU*rU*rG*rU*rG*rU (5' isatoribine via 5'-5' linkage, phosphorothioate, as printed in the source, key not given here) [SEQ ID NO:6, ORN with Immunosine (Isatoribine) (with a 5′-5′ linkage) at the 5′ end]", "values": [{"measurement": "IFN-alpha cytokine induction, 8-modified nucleotide at the ORN 5′ end", "setting": "Human PBMC [4]", "value": "increased cytokine induction"}]}
{"molecule": "rO*rU*rU*rG*rU*rG*rU (8-oxo-rG, phosphorothioate linkages, as printed in the source, key not given here) [SEQ ID NO:3, ORN with a single 8-Oxo-rG at the 5′ position]", "values": [{"measurement": "IFN-alpha cytokine induction, effect of the position of 8-Oxo-rG", "setting": "Human PBMC [4]", "value": "increased cytokine induction"}]}
{"molecule": "rO*rU*rU*rO*rU*rO*rU [SEQ ID NO:1]", "values": [{"measurement": "IFN-alpha cytokine induction, effect of the position of 8-Oxo-rG", "setting": "Human PBMC [4]", "value": "increased cytokine induction"}, {"measurement": "IFN-alpha cytokine induction, 8-modified nucleotide at the ORN 5′ end", "setting": "Human PBMC [4]", "value": "increased cytokine induction"}]}
